Test results reported in patent US20260295053A1, “COMPOUNDS FOR DEGRADATION AND INHIBITION OF KRAS (G12D) PROTEIN” (Shenzhen Ionova Life Science Co., Ltd., priority 2023, published 2026).

Experiments:
AsPC-1 cells = assay: AsPC-1 cell proliferation assay (CellTiter Glo); type: cell-based; conditions: 6 days
Method in brief: (§1)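 Half-maximal degradation (DC50) and inhibition (IC50) concentrations are fitted from dose-response curves spanning […] to 1.5 nM final. KRAS G12D loss is measured by fluorescent antibody staining with β-actin reference after 24 h; growth is measured by ATP luminescence after a 6-day exposure.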

KRAS (G12D) = molecular target: T1, KRAS (G12D) (Homo sapiens, UniProt P01116, G12D); assay: KRAS (G12D) cellular degradation assay in AsPC-1 cells; type: cell-based; conditions: 24 hours, antibody fluorescence (Odyssey CLX), DC50 half-maximal degradation concentration
T1 construct: in-cell western with KRAS G12D antibody after 24 h
Method in brief: as §1

T1 sequence (P01116 1-188 isoform P01116-2 G12D): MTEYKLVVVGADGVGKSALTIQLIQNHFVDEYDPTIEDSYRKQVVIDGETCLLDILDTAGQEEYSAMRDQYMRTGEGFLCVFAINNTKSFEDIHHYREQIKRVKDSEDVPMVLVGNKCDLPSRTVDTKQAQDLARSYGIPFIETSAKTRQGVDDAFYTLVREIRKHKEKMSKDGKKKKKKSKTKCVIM

Structure (SMILES) | IC50 (AsPC-1 cells; Homo sapiens, ASPC1, 144 h) | DC50 (KRAS (G12D)) | IC50 (AsPC-1 cells)
CCn1nccc1-c1ccc([C@H](CO)NC(=O)[C@@H]2C[C@@H](O)CN2C(=O)[C@H](C(C)C)n2cc(-c3ccc(COc4c(-c5c(C)c(F)cc6[nH]ncc56)c(C5CC5)cc5c(N(C)[C@H]6CCNC6)nc(OC[C@H](C)OC)nc45)cc3)nn2)c2c1CC2 [Example 169, (2S,4R)-1-((2S)-2-(4-(4-(((6-cyclopropyl-7-(6-fluoro-5-methyl-1H-indazol-4-yl)-2-((S)-2-methoxypropoxy)-4-(methyl((S)-pyrrolidin-3-yl)amino)quinazolin-8-yl)oxy)methyl)phenyl)-1H-1,2,3-triazol-1-yl)-3-methylbutanoyl)-N—((R)-1-(5-(1-ethyl-1H-pyrazol-5-yl)bicyclo[4.2.0]octa-1(6),2,4-trien-2-yl)-2-hydroxyethyl)-4-hydroxypyrrolidine-2-carboxamide] | < 10 nM | < 10 nM | –
CCn1nccc1-c1ccc([C@@H](NC(=O)[C@@H]2C[C@@H](O)CN2C(=O)[C@H](C(C)C)n2cc(-c3ccc(COc4c(-c5c(C)c(F)cc6[nH]ncc56)c(C5CC5)cc5c(N(C)[C@H]6CCNC6)nc(O[C@H]6C[C@H](OC)C6)nc45)cc3)nn2)[C@H](C)O)cc1 [Example 170, (2S,4R)-1-((2S)-2-(4-(4-(((6-cyclopropyl-7-(6-fluoro-5-methyl-1H-indazol-4-yl)-2-((1r,3S)-3-methoxycyclobutoxy)-4-(methyl((S)-pyrrolidin-3-yl)amino)quinazolin-8-yl)oxy)methyl)phenyl)-1H-1,2,3-triazol-1-yl)-3-methylbutanoyl)-N-((1R,2S)-1-(4-(1-ethyl-1H-pyrazol-5-yl)phenyl)-2-hydroxypropyl)-4-hydroxypyrrolidine-2-carboxamide] | < 10 nM | < 10 nM | –
CO[C@H]1C[C@H](Oc2nc(N(C)[C@H]3CCNC3)c3cc(C4CC4)c(-c4c(C)c(F)cc5[nH]ncc45)c(OCc4ccc(-c5cn([C@H](C(=O)N6C[C@H](O)C[C@H]6C(=O)N[C@H](c6ccc(-c7scnc7C)cc6)[C@H](C)O)C(C)C)nn5)cc4)c3n2)C1 [Example 171, (2S,4R)-1-((2S)-2-(4-(4-(((6-cyclopropyl-7-(6-fluoro-5-methyl-1H-indazol-4-yl)-2-((1r,3S)-3-methoxycyclobutoxy)-4-(methyl((S)-pyrrolidin-3-yl)amino)quinazolin-8-yl)oxy)methyl)phenyl)-1H-1,2,3-triazol-1-yl)-3-methylbutanoyl)-4-hydroxy-N-((1R,2S)-2-hydroxy-1-(4-(4-methylthiazol-5-yl)phenyl)propyl)pyrrolidine-2-carboxamide] | < 10 nM | < 10 nM | –
CCn1nccc1-c1ccc([C@@H](NC(=O)[C@@H]2C[C@@H](O)CN2C(=O)[C@H](C(C)C)n2cc(-c3ccc(COc4c(-c5c(C)c(F)cc6[nH]ncc56)c(C5CC5)cc5c(N(C)[C@H]6CCNC6)nc(O[C@H]6C[C@H](OC)C6)nc45)cc3)nn2)[C@H](C)O)c2c1CC2 [Example 173, (2S,4R)-1-((2S)-2-(4-(4-(((6-cyclopropyl-7-(6-fluoro-5-methyl-1H-indazol-4-yl)-2-((1r,3S)-3-methoxycyclobutoxy)-4-(methyl((S)-pyrrolidin-3-yl)amino)quinazolin-8-yl)oxy)methyl)phenyl)-1H-1,2,3-triazol-1-yl)-3-methylbutanoyl)-N-((1R,2S)-1-(5-(1-ethyl-1H-pyrazol-5-yl)bicyclo[4.2.0]octa-1(6),2,4-trien-2-yl)-2-hydroxypropyl)-4-hydroxypyrrolidine-2-carboxamide] | < 10 nM | < 10 nM | –
CNc1nc2ccc(C#C[C@H](CO)NC(=O)[C@@H]3C[C@@H](O)CN3C(=O)[C@H](C(C)C)n3cc(-c4ccc(COc5c(-c6c(C)c(F)cc7[nH]ncc67)c(C6CC6)cc6c(N7C[C@@H]8C[C@H]7CN8)nc(OC[C@H](C)OC)nc56)cc4)nn3)cc2s1 [Example 176, (2S,4R)-1-((2S)-2-(4-(4-(((4-((1S,4S)-2,5-diazabicyclo[2.2.1]heptan-2-yl)-6-cyclopropyl-7-(6-fluoro-5-methyl-1H-indazol-4-yl)-2-((S)-2-methoxypropoxy)quinazolin-8-yl)oxy)methyl)phenyl)-1H-1,2,3-triazol-1-yl)-3-methylbutanoyl)-4-hydroxy-N—((R)-1-hydroxy-4-(2-(methylamino)benzo[d]thiazol-6-yl)but-3-yn-2-yl)pyrrolidine-2-carboxamide] | < 10 nM | < 10 nM | –
CCn1nccc1-c1ccc([C@H](CO)NC(=O)[C@@H]2C[C@@H](O)CN2C(=O)[C@H](C(C)C)n2cc(-c3ccc(COc4c(-c5c(C)c(F)cc6[nH]ncc56)c(C5CC5)cc5c(N6CCCCCC6)nc(OC[C@H](C)OC)nc45)cc3)nn2)cc1 [Example 177, (2S,4R)-1-((2S)-2-(4-(4-(((4-(azepan-1-yl)-6-cyclopropyl-7-(6-fluoro-5-methyl-1H-indazol-4-yl)-2-((S)-2-methoxypropoxy)quinazolin-8-yl)oxy)methyl)phenyl)-1H-1,2,3-triazol-1-yl)-3-methylbutanoyl)-N—((R)-1-(4-(1-ethyl-1H-pyrazol-5-yl)phenyl)-2-hydroxyethyl)-4-hydroxypyrrolidine-2-carboxamide] | 10 to 100 nM | 10 to 100 nM | –
CCn1nccc1-c1ccc([C@H](CO)NC(=O)[C@@H]2C[C@@H](O)CN2C(=O)[C@H](C(C)C)n2cc(-c3ccc(COc4c(-c5c(C)c(F)cc6[nH]ncc56)c(C5CC5)cc5c(N6CCNCC[C@H]6C)nc(OC[C@H](C)OC)nc45)cc3)nn2)cc1 [Example 178, (2S,4R)-1-((2S)-2-(4-(4-(((6-cyclopropyl-7-(6-fluoro-5-methyl-1H-indazol-4-yl)-2-((S)-2-methoxypropoxy)-4-((R)-7-methyl-1,4-diazepan-1-yl)quinazolin-8-yl)oxy)methyl)phenyl)-1H-1,2,3-triazol-1-yl)-3-methylbutanoyl)-N—((R)-1-(4-(1-ethyl-1H-pyrazol-5-yl)phenyl)-2-hydroxyethyl)-4-hydroxypyrrolidine-2-carboxamide] | – | < 10 nM | < 10 nM
CO[C@@H](C)COc1nc(N2CCCNCC2)c2cc(C3CC3)c(-c3c(C)c(F)cc4[nH]ncc34)c(OCc3ccc(-c4cn([C@H](C(=O)N5C[C@H](O)C[C@H]5C(=O)N[C@@H](CO)c5ccc(-c6scnc6C)cc5)C(C)C)nn4)cc3)c2n1 [Example 179, (2S,4R)-1-((2S)-2-(4-(4-(((6-cyclopropyl-4-(1,4-diazepan-1-yl)-7-(6-fluoro-5-methyl-1H-indazol-4-yl)-2-((S)-2-methoxypropoxy)quinazolin-8-yl)oxy)methyl)phenyl)-1H-1,2,3-triazol-1-yl)-3-methylbutanoyl)-4-hydroxy-N—((R)-2-hydroxy-1-(4-(4-methylthiazol-5-yl)phenyl)ethyl)pyrrolidine-2-carboxamide] | < 10 nM | < 10 nM | –
CCn1nccc1-c1ccc([C@H](CO)NC(=O)[C@@H]2C[C@@H](O)CN2C(=O)[C@H](C(C)C)n2cc(-c3ccc(COc4c(-c5c(C)c(F)cc6[nH]ncc56)c(C5CC5)cc5c(N6CCCOCC6)nc(OC[C@H](C)OC)nc45)cc3)nn2)cc1 [Example 180, (2S,4R)-1-((2S)-2-(4-(4-(((6-cyclopropyl-7-(6-fluoro-5-methyl-1H-indazol-4-yl)-2-((S)-2-methoxypropoxy)-4-(1,4-oxazepan-4-yl)quinazolin-8-yl)oxy)methyl)phenyl)-1H-1,2,3-triazol-1-yl)-3-methylbutanoyl)-N—((R)-1-(4-(1-ethyl-1H-pyrazol-5-yl)phenyl)-2-hydroxyethyl)-4-hydroxypyrrolidine-2-carboxamide] | < 10 nM | < 10 nM | –
CCn1nccc1-c1ccc([C@H](CO)NC(=O)[C@@H]2C[C@@H](O)CN2C(=O)[C@H](C(C)C)n2cc(-c3ccc(COc4c(-c5c(C)c(F)cc6[nH]ncc56)c(C5CC5)cc5c(N6CCC=CCC6)nc(OC[C@H](C)OC)nc45)cc3)nn2)cc1 [Example 181, (2S,4R)-1-((2S)-2-(4-(4-(((6-cyclopropyl-7-(6-fluoro-5-methyl-1H-indazol-4-yl)-2-((S)-2-methoxypropoxy)-4-(2,3,6,7-tetrahydro-1H-azepin-1-yl)quinazolin-8-yl)oxy)methyl)phenyl)-1H-1,2,3-triazol-1-yl)-3-methylbutanoyl)-N—((R)-1-(4-(1-ethyl-1H-pyrazol-5-yl)phenyl)-2-hydroxyethyl)-4-hydroxypyrrolidine-2-carboxamide] | – | 10 to 100 nM | 10 to 100 nM
CCn1nccc1-c1ccc([C@@H](NC(=O)[C@@H]2C[C@@H](O)CN2C(=O)[C@H](C(C)C)n2cc(-c3ccc(COc4c(-c5c(C)c(F)cc6[nH]ncc56)c(C5CC5)cc5c(N6CCCNCC6)nc(OC[C@H](C)OC)nc45)cc3)nn2)[C@H](C)O)cc1 [Example 184, (2S,4R)-1-((2S)-2-(4-(4-(((6-cyclopropyl-4-(1,4-diazepan-1-yl)-7-(6-fluoro-5-methyl-1H-indazol-4-yl)-2-((S)-2-methoxypropoxy)quinazolin-8-yl)oxy)methyl)phenyl)-1H-1,2,3-triazol-1-yl)-3-methylbutanoyl)-N-((1R,2S)-1-(4-(1-ethyl-1H-pyrazol-5-yl)phenyl)-2-hydroxypropyl)-4-hydroxypyrrolidine-2-carboxamide] | < 10 nM | < 10 nM | –
CCn1nccc1-c1ccc([C@@H](NC(=O)[C@@H]2C[C@@H](O)CN2C(=O)[C@H](C(C)C)n2cc(-c3ccc(COc4c(-c5c(C)c(F)cc6[nH]ncc56)c(C5CC5)cc5c(N(C)[C@@H]6CCNC6)nc(OC[C@H](C)OC)nc45)cc3)nn2)[C@H](C)O)c2c1CC2 [Example 186, (2S,4R)-1-((2S)-2-(4-(4-(((6-cyclopropyl-7-(6-fluoro-5-methyl-1H-indazol-4-yl)-2-((S)-2-methoxypropoxy)-4-(methyl((R)-pyrrolidin-3-yl)amino)quinazolin-8-yl)oxy)methyl)phenyl)-1H-1,2,3-triazol-1-yl)-3-methylbutanoyl)-N-((1R,2S)-1-(5-(1-ethyl-1H-pyrazol-5-yl)bicyclo[4.2.0]octa-1(6),2,4-trien-2-yl)-2-hydroxypropyl)-4-hydroxypyrrolidine-2-carboxamide] | < 10 nM | < 10 nM | –
